Legend:
MCF-7 = assay: Growth inhibition, Sulforhodamine B (SRB) or Systmex cell counting (CC) assay, MCF-7; type: cell-based; conditions: Homo sapiens, MCF7, concentration required to inhibit net cell growth by 50%, read-out: Cancer cell line IC50
[1] = test system: Human umbilical vein endothelial cells (HUVECs), normal quiescent type (Norm); assay: Proliferation Assay - Quiescent Endothelium (MTT); type: cell-based; conditions: HUVEC
Description: Proliferation Assay—Quiescent Endothelium:
(§1) Cells were cultured overnight at 37° C. 5% CO2. Medium was subsequently replaced with fresh medium including the compound or negative control. Cells were cultured for a period of 48 hrs. An MTT assay was performed to measure changes in cell numbers. Briefly, 20 μl of MTT reagent was added to cells containing 100 μl of EBM2+0.5% FBS and incubated at 37° C. for 2 hours.

[2] = test system: Human umbilical vein endothelial cells (HUVECs), tumour type activated (Tum); assay: Proliferation Assay - Activated Endothelium (MTT); type: cell-based; conditions: for IC50: Homo sapiens, HUVEC, tumour type activated endothelial cells; for potency towards activated (tumour) versus quiescent (normal) endothelial cells: comparison of activated and quiescent HUVEC assays, FIGS. 1 and 2, Table 1
Description: Proliferation Assay—Activated Endothelium:
as §1, with “EGM2” for “EBM2+0.5% FBS”

MDA-MB-231 = assay: Growth inhibition, Sulforhodamine B (SRB) or Systmex cell counting (CC) assay, MDA-MB-231; type: cell-based; conditions: Homo sapiens; MDA-MB-231 (footnote b); concentration required to inhibit net cell growth by 50%; read-out: Cancer cell line IC50
tubulin = assay: Tubulin Polymerisation Assay (fluorescent-based kit); type: biochemical; conditions: compared with CA4 (1), FIG. 3
Description: Tubulin Polymerisation Assay:
Tubulin polymerisation inhibition assays were performed using a fluorescent-based detection kit (#BK011, Cytoskeleton) according to the instructions of the manufacturer. The test compound was added to a 2 mg/ml tubulin solution containing 20% glycerol and 1 mM GTP in 1× Buffer 1 (Buffer 1: 80 mM Piperazine-N,N′-bis[2-ethanesulfonic acid] sequisodium salt; 2 mM magnesium chloride; 0.5 mM Ethylene glycol-bis(b-amino-ethyl ether)N,N,N′,N′-tetra-acetic acid, pH 6.9, 10 uM fluorescent reporter). Fluorescence was measured over a period of 42 minutes at 1 minute intervals. Increased fluorescence indicates increase in tubulin polymerisation. There is a ten-fold increase in the affinity of the fluorescent reporter for polymerised tubulin compared to monomeric tubulin subunits. The result is a fluorescence signal that closely follows tubulin polymerisation.

## CNc1oc2c(O)c(OC)ccc2c1C(=O)c1cc(OC)c(OC)c(OC)c1 [Example 18, 2-(N-Methylamino)-7-hydroxy-3-(3,4,5-trimethoxybenzoyl)-6-methoxy-benzofuran]
MCF-7
  IC50: 3.5 nM
[1]
  IC50: 0.1 to 1 nM
[2]
  IC50: 1 to 10 nM

## COc1ccc2c(C(=O)c3cc(OC)c(OC)c(OC)c3)c(Br)oc2c1 [Example 3, 2-Bromo-3-(3,4,5-trimethoxybenzoyl)-6-methoxybenzofuran, reference compound]
MCF-7
  IC50: 500 nM
[1]
  IC50: 100 to 1000 nM
[2]
  IC50: 100 to 1000 nM

## COc1cc(C(=O)c2c(NCC(=O)O)oc3c(O)c(OC)ccc23)cc(OC)c1OC [Example 23, [7-hydroxy-6-methoxy-3(3,4,5-trimethoxy-benzoyl)-benzofuran-2-ylamino]acetic acid]
MCF-7
  IC50: 260 nM
[1]
  IC50: 100 to 1000 nM
[2]
  IC50: 100 to 1000 nM

## C#Cc1oc2c(O)c(OC)ccc2c1C(=O)c1cc(OC)c(OC)c(OC)c1 [Example 8, 2-Ethynyl-7-hydroxy-6-methoxy-3-(3,4,5-trimethoxybenzoyl)-benzofuran]
MCF-7
  IC50: 3.3 nM
[1]
  IC50: 1 to 10 nM
[2]
  IC50: 1 to 10 nM

## COc1cc(C(=O)c2c(Nc3cccnc3)oc3c(O)c(OC)ccc23)cc(OC)c1OC [Example 25, [7-Hydroxy-6-methoxy-2-(pyridin-3-ylamino)-benzofuran-3-yl]-(3,4,5-trimethoxy-phenyl)-methanone]
MDA-MB-231
  IC50: 1 to 10 nM
[1]
  IC50: 1 to 10 nM
[2]
  IC50: 1 to 10 nM

## COC(=O)/C=C/c1oc2c(O)c(OC)ccc2c1C(=O)c1cc(OC)c(OC)c(OC)c1 [Example 14, (E)-3-[7-Hydroxy-6-methoxy-3-(3,4,5-trimethoxy-benzoyl)-benzofuran-2-yl]-acrylic acid methyl ester]
MCF-7
  IC50: 2 nM
[1]
  IC50: 1 to 10 nM
[2]
  IC50: 0.1 to 1 nM

## COc1cc(C(=O)c2c(N(C)C)oc3c(O)c(OC)ccc23)cc(OC)c1OC [Example 22, (2-N,N′-Dimethylamino-7-hydroxy-6-methoxy-benzofuran-3-yl)-(3,4,5-trimethoxy-phenyl)-methanone]
MDA-MB-231
  IC50: 1 to 10 nM
[1]
  IC50: 1 to 10 nM
[2]
  IC50: 1 to 10 nM

## COc1ccc(/C=C\c2cc(OC)c(OC)c(OC)c2)cc1OP(=O)(O)O [Comparator B, reference compound]
MCF-7
  IC50: 5 nM
[1]
  IC50: 1 to 10 nM
[2]
  IC50: 1 to 10 nM

## COc1ccc2c(C(=O)c3cc(OC)c(OC)c(OC)c3)coc2c1 [Example 5, 3-(3,4,5-Trimethoxybenzoyl)-6-methoxy-benzofuran, reference compound]
MCF-7
  IC50: 55 nM
[1]
  IC50: 10 to 100 nM
[2]
  IC50: 10 to 100 nM

## COc1cc(C(=O)c2c(SC)oc3c(O)c(OC)ccc23)cc(OC)c1OC [Example 9, 7-Hydroxy-6-methoxy-2-methylsulfanyl-3-(3,4,5-trimethoxybenzoyl)benzofuran]
MCF-7
  IC50: 1.2 nM
[1]
  IC50: 1 to 10 nM
[2]
  IC50: 0.1 to 1 nM
  potency towards activated (tumour) versus quiescent (normal) endothelial cells: higher potency towards tumour endothelial cells (activated) over normal endothelial cells (quiescent)

## COc1cc(C(=O)c2c(C)oc3c(O)c(OC)ccc23)cc(OC)c1OC [Example 11, 2-Methyl-7-hydroxy-3-(3,4,5-trimethoxybenzoyl)-6-methoxybenzofuran]
MCF-7
  IC50: 2 nM
tubulin
  potency in inhibiting tubulin polymerisation: significantly greater potency than CA4 (1)
[1]
  IC50: 10 to 100 nM
[2]
  IC50: 0.1 to 1 nM
  potency towards activated (tumour) versus quiescent (normal) endothelial cells: higher potency towards tumour endothelial cells (activated) over normal endothelial cells (quiescent)

## COc1cc(C(=O)c2c(/C=C/C(N)=O)oc3c(O)c(OC)ccc23)cc(OC)c1OC [Example 15, (E)-3-[7-Hydroxy-6-methoxy-3-(3,4,5-trimethoxy-benzoyl)benzofuran-2-yl]-acrylamide]
MDA-MB-231
  IC50: 1 to 10 nM
[1]
  IC50: 1 to 10 nM
[2]
  IC50: 1 to 10 nM
  potency towards activated (tumour) versus quiescent (normal) endothelial cells: higher potency towards tumour endothelial cells (activated) over normal endothelial cells (quiescent)

## COc1ccc2c(C(=O)c3c(F)c(F)c(F)c(F)c3F)coc2c1O [Example 53, 3-(Pentafluorobenzoyl)-6-methoxy-7-hydroxybenzo[b]furan]
MCF-7
  IC50: 800 nM
[1]
  IC50: > 1000 nM
[2]
  IC50: > 1000 nM

## COC(=O)c1oc2c(O)c(OC)ccc2c1C(=O)c1cc(OC)c(OC)c(OC)c1 [Example 17, 7-Hydroxy-6-methoxy-3-(3,4,5-trimethoxy-benzoyl)-benzofuran-2-methylcarboxylate]
MDA-MB-231
  IC50: 1 to 10 nM
[1]
  IC50: 1 to 10 nM
[2]
  IC50: 1 to 10 nM

## COc1cc(C(=O)c2c(NN)oc3c(O)c(OC)ccc23)cc(OC)c1OC [Example 10, 2-Hydrazino-7-hydroxy-6-methoxy-3-(3,4,5-trimethoxybenzoyl)-benzofuran]
MCF-7
  IC50: 35 nM
[1]
  IC50: 10 to 100 nM
[2]
  IC50: 1 to 10 nM

## COc1ccc(/C=C\c2cc(OC)c(OC)c(OC)c2)cc1O [Comparator A, reference compound]
MCF-7
  IC50: 5 nM
[1]
  IC50: 1 to 10 nM
[2]
  IC50: 1 to 10 nM

## COc1cc(C(=O)c2coc3c(O)c(OC)ccc23)cc(OC)c1OC [Example 6, 3-(3,4,5-Trimethoxybenzoyl)-6-methoxy-7-hydroxybenzofuran]
MCF-7
  IC50: 45 nM
[1]
  IC50: 10 to 100 nM
[2]
  IC50: 10 to 100 nM

## COc1cc(OC)cc(C(=O)c2coc3c(O)c(OC)ccc23)c1 [Example 52, 3-(3,5-Dimethoxybenzoyl)-7-hydroxy-6-methoxybenzo[b]furan]
MCF-7
  IC50: 35 nM
[1]
  IC50: 100 to 1000 nM
[2]
  IC50: 100 to 1000 nM

## COC(=O)CNc1oc2c(O)c(OC)ccc2c1C(=O)c1cc(OC)c(OC)c(OC)c1 [Example 24, [7-Hydroxy-6-methoxy-3-(3,4,5-trimethoxy-benzoyl)-benzofuran-2-ylamino]-acetic acid methyl ester]
MDA-MB-231
  IC50: 1 to 10 nM
[1]
  IC50: 1 to 10 nM
[2]
  IC50: 1 to 10 nM

## COc1cc(C(=O)c2c(NCCN(C)C)oc3c(O)c(OC)ccc23)cc(OC)c1OC [Example 21]
MDA-MB-231
  IC50: 10 to 100 nM
[1]
  IC50: 10 to 100 nM
[2]
  IC50: 10 to 100 nM

## COc1cc(C(=O)c2coc3c(N)c(OC)ccc23)cc(OC)c1OC [Example 2, (7-Amino-6-methoxybenzofuran-3-yl)(3,4,5-trimethoxyphenyl)methanone]
MDA-MB-231
  IC50: 1 to 10 nM
[1]
  IC50: 1 to 10 nM
[2]
  IC50: 1 to 10 nM

## COc1ccc2c(C(=O)c3cc(OC)c(OC)c(OC)c3)c(O)oc2c1 [Example 30, (2-Hydroxy-6-methoxybenzofuran-3-yl)(3,4,5-trimethoxyphenyl)methanone, reference compound]
MCF-7
  IC50: 575 nM
[1]
  IC50: 100 to 1000 nM
[2]
  IC50: 100 to 1000 nM

## CCC/C=C/c1oc2c(O)c(OC)ccc2c1C(=O)c1cc(OC)c(OC)c(OC)c1 [Example 13]
MCF-7
  IC50: 8 nM
[1]
  IC50: 1 to 10 nM
[2]
  IC50: 1 to 10 nM

## COc1cc(C(=O)c2c(NCCO)oc3c(O)c(OC)ccc23)cc(OC)c1OC [Example 20, [7-Hydroxy-2-(2-hydroxy-ethylamino)-6-methoxy-benzofuran-3-yl]-(3,4,5-trimethoxy-phenyl)methanone]
MDA-MB-231
  IC50: 1 to 10 nM
[1]
  IC50: 1 to 10 nM
[2]
  IC50: 1 to 10 nM

## COc1cc(C(=O)c2c(C)oc3c(O)c(OC)ccc23)cc(OC)c1O [Example 46, 3-(4-Hydroxy-3,5-di-methoxy-benzoyl)-7-hydroxy-6-methoxy-2-Methyl-benzo[b]furan]
[1]
  IC50: 100 to 1000 nM
[2]
  IC50: 10 to 100 nM

## COc1cc(C(=O)c2c(NCCNC(=N)N)oc3c(O)c(OC)ccc23)cc(OC)c1OC [Example 28, 1-[2-(7-hydroxy-6-methoxy-3-(3,4,5-trimethoxybenzoyl)benzofuran-2-ylamino)ethyl]guanidine]
[1]
  IC50: 10 to 100 nM
[2]
  IC50: 100 to 1000 nM

— patent US10213409B2, “Substituted benzofurans, benzothiophenes, benzoselenophenes and indoles and their use as tubulin polymerisation inhibitors” (Bionomics Limited, priority 2006, dated 2019)
